Patent publication US12017996B2, “Substituted quinolines and formulations thereof” (JIANGSU MEDOLUTION LTD, priority 2021, dated 2024)

Key:
Assay type in all cases: physicochemical
Dissociation constants = test: Dissociation constants
Text: (§1) For example, Compound A is soluble in acetic acid and hydrochloric acid solution (0.1 M). […] Compound A's dissociation constants: pKa1 is 4.99; pKa2 is 10.26.

[1] = Solubility of Compound A in solvents
Text: as §1

[2] = Compatibility test of excipients (impurities over time)
Method: Each of mannitol, sodium starch glycolate, hydroxpropyl cellulose and glyceryl behenate was individually mixed with Compound A. The resulting mixture was tested for the impurities over time under the following conditions: lumination 4500±500 Lux; high humidity at 90±5%; high temperature at 40±2° C.; and accelerated condition at humidity of 75±5% and temperature of 40±2° C. Testing were done at day 0, day 7 and day 14. The percentage of the total impurities and the SZMD4-Z8 impurity were recorded together with other data.

[3] = high temperature 40±2° C., day 7
[4] = high temperature 40±2° C., day 14
[5] = lumination 4500±500 Lux, day 14

Compound: C#Cc1cccc(Nc2c(C#N)cnc3cc(OCC)c(NC(=O)/C=C/CN(C)C)cc23)c1.O=C(O)/C=C\C(=O)O [Compound A, (E)-N-[3-cyano-7-ethoxy-4-(3-ethynylanilino)-6-quinolyl]-4-(dimethylamino)but-2-enamide maleate]
- dissociation constant pKa1 (Dissociation constants): 4.99
- dissociation constant pKa2 (Dissociation constants): 10.26
- solubility ([1]; in acetic acid): soluble
- solubility ([1]; in acetonitrile): slightly soluble
- solubility ([1]; in ethanol): slightly soluble
- solubility ([1]; in hydrochloric acid solution (0.1 M)): soluble
- solubility ([1]; in n-propanol): hardly soluble
- solubility ([1]; in sodium hydroxide solution (0.1 M)): not soluble
- solubility ([1]; in water): extremely slightly soluble
- SZMD4-Z8 impurity ([2]; day 0): 0.03%
- Total Impurities ([2]; day 0): 0.29%
- SZMD4-Z8 impurity ([2]; high humidity 90±5%, day 7): 0.04%
- Total Impurities ([2]; high humidity 90±5%, day 7): 0.31%
- SZMD4-Z8 impurity ([2]; high humidity 90±5%, day 14): 0.04%
- Total Impurities ([2]; high humidity 90±5%, day 14): 0.30%
- SZMD4-Z8 impurity [2, 3]: 0.03%
- Total Impurities [2, 3]: 0.31%
- SZMD4-Z8 impurity [2, 4]: 0.03%
- Total Impurities [2, 4]: 0.30%
- SZMD4-Z8 impurity ([2]; lumination 4500±500 Lux, day 7): 0.03%
- Total Impurities ([2]; lumination 4500±500 Lux, day 7): 0.40%
- SZMD4-Z8 impurity [2, 5]: 0.03%
- Total Impurities [2, 5]: 0.44%%
